# Laboratory results from patent US4795639A, “Potentiating formulations” (priority 1971, dated 1989).
# Where “and” joins values, the source holds several entries; their conditions need not be identical. Equal values may be shown once.
# Tests used:
# E. tenella = test: coccidiosis screening test in chicks, E. tenella; format: in vivo, Eimeria tenella
# Protocol: "Screening tests" were performed to establish the effectiveness of the compounds of formula (I) both alone and in combination with a competitor and or an inhibitor and to determine the most useful levels of relative concentrations of each component in combatting or suppressing coccidiosis.
# Groups of Ranger cockerels, housed in small, heated cages with wire floors situated in enironmentally controlled isolation rooms, were infected orally with sporulated oocysts of the Eimeria spp such as E. tenella or E. acervulina. The appropriate test compound(s), (DMHP, sulphaquinoxaline (SQX) or diaveridine (DV) or any combination of these) were incorporated in a small quantity of specially formulated laboratory ration deficient in Vitamin K (`L.D.4 mash`), as a 1/10 pre-mix, which was then mixed into the diet on a horizontal roller drum mixed and administered to groups of chicks one day prior to infection, leaving some groups as untreated controls. Administration was continued for several days, for example about 8 or 9 days.
# The amount of damage, marked by lesions in the caecal walls was investigated in those chicks that died during the course of the experiment, and in those sacrificed on the final day of administration, and compared with the untreated controls as a basis for the determination of therapeutic activity. In addition the mortality rate and the percentage weight gains in the various groups were assessed. A marked or definite effect of the administered drug could be recognised even when the mortality rates were similar or identical, since the increase in the weight gains and the reduction of the extension of lesions indicated by the lesion score, is characteristic of an improvement. […]
# 4:1 sulphaquinoxaline/diaveridine mixtures at levels of 80/20, 60/15, 40/10 and 20/5 p.p.m. were administered alone and in combination with a wide range of low concentrations of DMHP to the birds.
# The results of these screening tests are set forth in Table 4 showing the concentration of the various component compounds in parts per million of the bird's diet, the mortality from coccidiosis, the percentage weight gain, the lesion score the oocyst output, and the activity. The caecal lesion index is calculated using a score system where: […]
# In addition a score of 4 is assigned to any bird that dies of coccidiosis during the experiment. [formula] In the activity column, +++, ++, +, ± and - relate respectively to very high, high, slight, doubtful and nil activity of the test drug against the Eimeria infection.
# [1] = tested on: Staphylococcus aureus CN 491; test: testing discs on standard nutrient medium; format: cell-based; conditions: Staphylococcus aureus, CN491; read-out: Size of zone in cm (×6 magnification)
# [2] = tested on: Pseudomonas aeruginosa CN 200; test: testing discs on standard nutrient medium; format: cell-based; conditions: Pseudomonas aeruginosa, CN200; read-out: Size of zone in cm (×6 magnification)
# Escherichia coli CN 314 = test: testing discs on standard nutrient medium; format: cell-based; conditions: Escherichia coli, CN314; read-out: Size of zone in cm (×6 magnification)
# [3] = target: T1, hydroxymethyldihydropteridine pyrophosphokinase (HMPPS) (Escherichia coli, UniProt P26281); test: HMPPS assay: transfer of terminal phosphate of ATP-γ-P^32 to Pt; format: biochemical, E. coli
# T1 construct: obtained from an extract of E. coli; endogenous in cells; host or cells: E. coli extract; HMPPS separated from synthetase on Sephadex G-100 (method of Richey and Brown 1969)
# Source text: (a) An assay for HMPPS was developed in which the transfer of the terminal phosphate of ATP-γ-P^32 to Pt could be monitored and correlated with the amount of inhibition of HMPPS by the compound under test.
# The compound under test was incorporated into various formulations comprising metabolites and enzymes contained in test tubes, as indicated in TABLE 1.
# II--a source of HMMP S, obtained from an extract of E. coli and separated from `synthetase` on Sephadex G-100, according to the method of Richey and Brown in J. Biol. Chem. 244, 1582-1592 (1969)
# (§1) Control tubes 10 to 12 include a source of both HMPPS and synthetase, unlabelled ATP, 0.1M MgCl2.6H2 O and labelled pAB.
# Tubes 1 to 9 containing the amounts of components shown in the Table, were filled up to 200 μl with distilled water, incubated for 60 minutes at 37° C. and then chilled on ice. Dextrose (20 μl containing 72.1 mg/ml) and hexokinase (5 μl containing 2000 units/ml) were added to the solution, which was then allowed to stand at room temperature for 15 minutes. `Darco-G-60` (Registered Trade Mark) (10 mg) was added to each tube and the contents mixed periodically for 10 minutes. The charcoal was removed through a "Millipore AP 250 2200" (Registered Trade Mark) filter and the filter was washed with three 10 ml portions of cold water. The Charcoal and the filter were then radioactively counted.
# The radioactive count from the contents of tubes 2 and 3 was taken as the maximum count, since these tubes contained no test compound and thus gave 0% enzyme inhibition. The percentage inhibition produced by the contents of the remaining tubes could then be calculated by relating their radioactive count to the maximum, as determined above.
# HMPPS and `synthetase` = test: control tubes with source of both HMPPS and `synthetase`, labelled pAB, chromatographic analysis; format: biochemical, E. coli; conditions: 1 × 10^-5 M
# Protocol: as §1
# Two control test tubes were prepared, each containing ATP (10 μl, 0.1M), MgCl2.6H2 O (10 μl, 0.1M), dithiothreitol (20 μl, 0.1M) tris buffer (20 μl, 0.4M, pH 8.3), pAB-C^14 (10 μl, 0.4 mM), and 20 μl of a solution containing HMPPS and `synthetase` of known activity. The test compound was added to the second of these two tubes up to a final concentration of 10^-5 M, and both tubes were made up with distilled water to 200 μl.
# All seven tubes were then incubated for 30 minutes at 37° C., chilled on ice and then these, together with control tubes 10 to 12 from part (a), were chromatographically analysed as follows:
# 100 μl of the contents of each of the tubes was spotted onto Whatman No. 3 MM chromatography paper (2×20 cm) at the `origin`, the run descending in a Sorenson buffer of potassium and sodium phosphates (0.1M, pH 7.0) for 10 to 15 cm.
# [4] = final concn. 0.93 × 10^-4 M, tubes 8, 9
# T1 sequence (P26281 whole entry): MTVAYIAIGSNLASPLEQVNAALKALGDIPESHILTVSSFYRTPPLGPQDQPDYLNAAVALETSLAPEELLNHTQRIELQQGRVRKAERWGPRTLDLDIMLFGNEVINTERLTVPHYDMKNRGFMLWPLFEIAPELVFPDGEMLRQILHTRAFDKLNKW
smiles,measurement,setting,value
"CC1(C)Nc2nc(N)nc(O)c2N=C1CO [DMHP, 2-amino-4-hydroxy-6-hydroxymethyl-7,7-dimethyl-7,8-dihydropteridine]",Mortality from Coccidiosis,"E. tenella; Expt. 1, 200,000 oocysts, SQX/DV/DMHP p.p.m in diet: -/-/250, -/-/90, -/-/30, -/-/10, 30/30/-, 30/30/250, 30/30/90, 30/30/30, 30/30/10",1/5 and 2/5 and 3/5
same,Mortality from Coccidiosis,"E. tenella; Expt. 4, 100,000 oocysts, p.p.m SQX/DV/DMHP: b374 10/-/-, b375 -/20/-, b376 -/-/10, b377 10/-/10, b378 -/20/10, b379 10/20/-, b381 10/20/10, b382 20/-/-, b383 -/40/-, b384 -/-/20, b385 20/-/20, b386 -/40/20, b387 20/40/-, b389 20/40/20",8/10 and 6/10
same,Mortality from Coccidiossis,"E. tenella; Expt. 5, 100,000 oocysts, SQX/DV p.p.m with DMHP 40, 20, 10, 5 p.p.m: b409-412 20/20, b413-416 26.7/13.3, b417-420 30/10, b421-424 32/8, b425-428 33.4/6.6, no DMHP: b429 20/20, b430 26.7/13.3, b431 30/10, b432 32/8, b433 33.4/6.6, DMHP alone b434-437 40, 20, 10, 5",19/20 and 18/20 and 20/20
same,activity alone against infection with E. tenella,E. tenella; all levels of concentration tested,inactive
same,potentiation of the activity of diaveridine/sulphaquinoxaline mixtures,E. tenella; in many cases by as much as,3 to 4 fold
same,zone of inhibition at 100 µg/disc,[1],0 mm
same,zone of inhibition at 100 µg/disc,[2],220 mm
same,zone of inhibition at 100 µg/disc,Escherichia coli CN 314,0 mm
same,IC50,[3],2 to 4 µM
same,% Inhibn.,[3]; [4],95%
same,inhibition at 93 µM,[3]; [4],98%
same,% Inhibn.,"[3]; final concn. 1 × 10^-5 M, tubes 6, 7",87% and 55%
same,inhibition at 2.5e-10 µM,"[3]; read-out: % Inhibn., test compound final concn., tubes 4, 5",44%
same,% Inhibn.,"[3]; test compound final concn., tubes 4, 5",33%
same,% Inhibn.,HMPPS and `synthetase`; Table 1 control tube 12,79%
same,% Inhibn.,HMPPS and `synthetase`; Table 2 control tube 7,83%
